Laboratory results: patent US12209075B2, “Pyridine-sulfonamide derivatives as sodium channel inhibitors” (GENENTECH, INC., priority 2018, dated 2025)
pIC50: −log10 of the molar value. Where a name gives a salt, the structure may show the parent alone.

Tests used:
[1] = molecular target: T1, hNav1.7 (Homo sapiens (Human), UniProt Q15858); assay: Tritiated compound binding to membranes from cells expressing hNav1.7 and the β1 subunit (Nav1.7 LBA EVO); conditions: competitive binding vs [3H]compound, membranes with hNav1.7 and β1 subunit
Experimental: Example 64a. Tritiated Compound Binding to Membranes Isolated from Cells that Heterologously Express hNav1.7 and the β1 Subunit
Preparation of membranes containing recombinantly expressed sodium channels: Frozen recombinant cell pellets are thawed on ice and diluted to 4 times the cell pellet weight with ice cold 50 mM Tris HCl, pH 7.4 buffer. The cell suspensions are homogenized on ice using a motorized glass dounce homogeniser. Homogenates are further diluted 8.4 times with ice cold 50 mM Tris HCl, pH 7.4 buffer and then centrifuged at 200×g at 4° C. for 15 minutes. The supernatants are collected and centrifuged at 10000×g at 4° C. for 50 min. The pellets are then re-suspended in 100 mM NaCl, 20 mM Tris HCl, pH 7.4 buffer containing 1% v/v protease inhibitors (Calbiochem) and re-homogenized on ice. The homogenized membranes are then processed through a syringe equipped with a 26 gauge needle. Protein concentrations arer determined by Bradford Assay and the membranes are stored at −80° C.
Radioligand Binding Studies: Saturation experiments. A competitive NaV1.7 inhibitor having a methyl group is tritiated. Three tritiums are incorporated in place of methyl hydrogens to generate [^3H]compound. Binding of this radioligand is performed in 5 mL borosilicate glass test tubes at room temperature. Binding is initiated by adding membranes to increasing concentrations of [^3H]compound in 100 mM NaCl, 20 mM Tris HCl, pH 7.4 buffer containing 0.01% w/v bovine serum albumin (BSA) for 18 h. Non-specific binding is determined in the presence of 1 μM unlabeled compound. After 18 h, the reactants are filtered through GF/C glass fiber filters presoaked in 0.5% w/v polyethylene imine. Filters are washed with 15 mL ice cold 100 mM NaCl, 20 mM Tris HCl, pH7.4 buffer containing 0.25% BSA to separate bound from free ligand. [^3H]compound bound to filters is quantified by liquid scintillation counting.
Competitive binding experiments: Binding reactions are performed in 96-well polypropylene plates at room temperature for 18 h. In 360 μL, membranes are incubated with 100 pM [^3H]compound and increasing concentrations of Test Compound. Non-specific binding is defined in the presence of 1 μM unlabeled compound. Reactions are transferred and filtered through 96-well glass fiber/C filter plates presoaked with 0.5% polyethylene imine. The filtered reactions are washed 5 times with 200 μL ice cold buffer containing 0.25% BSA. Bound radioactivity is determined by liquid scintillation counting.
Data Analysis: For saturation experiments, non-specific binding is subtracted from total binding to provide specific binding and these values are recalculated in terms of pmol ligand bound per mg protein. Saturation curves are constructed and dissociation constants are calculated using the single site ligand binding model: Beq=(Bmax*X)/(X+Kd), where Beq is the amount of ligand bound at equilibrium, Bmax is the maximum receptor density, Kd is the dissociation constant for the ligand, and X is the free ligand concentration. For competition studies percent inhibition is determined and IC50 values are calculated using a 4 parameter logistic model (% inhibition=(A+((B−A)/(1+((x/C)^D)))) using XLfit, where A and B are the maximal and minimum inhibition respectively, C is the IC50 concentration and D is the (Hill) slope.
Example 64b. Tritiated Compound Binding to Membranes Isolated from Cells that Heterologous Express hNav1.7 and the β1 Subunit
Preparation of membranes containing recombinantly expressed sodium channels: Following the procedure described in 31a, and making modifications as required to: centrifuge supernatants at 100000×g instead of 10000×g; re-suspend pellets in a buffer containing 0.01% BSA in addition to 100 mM NaCl, 20 mM Tris HCl, pH 7.4 buffer, and 1% v/v […]; and storing membranes at −80° C. in single use aliquots instead of pooled. […]
Target sequence in this assay (Q15858 whole entry, looked up): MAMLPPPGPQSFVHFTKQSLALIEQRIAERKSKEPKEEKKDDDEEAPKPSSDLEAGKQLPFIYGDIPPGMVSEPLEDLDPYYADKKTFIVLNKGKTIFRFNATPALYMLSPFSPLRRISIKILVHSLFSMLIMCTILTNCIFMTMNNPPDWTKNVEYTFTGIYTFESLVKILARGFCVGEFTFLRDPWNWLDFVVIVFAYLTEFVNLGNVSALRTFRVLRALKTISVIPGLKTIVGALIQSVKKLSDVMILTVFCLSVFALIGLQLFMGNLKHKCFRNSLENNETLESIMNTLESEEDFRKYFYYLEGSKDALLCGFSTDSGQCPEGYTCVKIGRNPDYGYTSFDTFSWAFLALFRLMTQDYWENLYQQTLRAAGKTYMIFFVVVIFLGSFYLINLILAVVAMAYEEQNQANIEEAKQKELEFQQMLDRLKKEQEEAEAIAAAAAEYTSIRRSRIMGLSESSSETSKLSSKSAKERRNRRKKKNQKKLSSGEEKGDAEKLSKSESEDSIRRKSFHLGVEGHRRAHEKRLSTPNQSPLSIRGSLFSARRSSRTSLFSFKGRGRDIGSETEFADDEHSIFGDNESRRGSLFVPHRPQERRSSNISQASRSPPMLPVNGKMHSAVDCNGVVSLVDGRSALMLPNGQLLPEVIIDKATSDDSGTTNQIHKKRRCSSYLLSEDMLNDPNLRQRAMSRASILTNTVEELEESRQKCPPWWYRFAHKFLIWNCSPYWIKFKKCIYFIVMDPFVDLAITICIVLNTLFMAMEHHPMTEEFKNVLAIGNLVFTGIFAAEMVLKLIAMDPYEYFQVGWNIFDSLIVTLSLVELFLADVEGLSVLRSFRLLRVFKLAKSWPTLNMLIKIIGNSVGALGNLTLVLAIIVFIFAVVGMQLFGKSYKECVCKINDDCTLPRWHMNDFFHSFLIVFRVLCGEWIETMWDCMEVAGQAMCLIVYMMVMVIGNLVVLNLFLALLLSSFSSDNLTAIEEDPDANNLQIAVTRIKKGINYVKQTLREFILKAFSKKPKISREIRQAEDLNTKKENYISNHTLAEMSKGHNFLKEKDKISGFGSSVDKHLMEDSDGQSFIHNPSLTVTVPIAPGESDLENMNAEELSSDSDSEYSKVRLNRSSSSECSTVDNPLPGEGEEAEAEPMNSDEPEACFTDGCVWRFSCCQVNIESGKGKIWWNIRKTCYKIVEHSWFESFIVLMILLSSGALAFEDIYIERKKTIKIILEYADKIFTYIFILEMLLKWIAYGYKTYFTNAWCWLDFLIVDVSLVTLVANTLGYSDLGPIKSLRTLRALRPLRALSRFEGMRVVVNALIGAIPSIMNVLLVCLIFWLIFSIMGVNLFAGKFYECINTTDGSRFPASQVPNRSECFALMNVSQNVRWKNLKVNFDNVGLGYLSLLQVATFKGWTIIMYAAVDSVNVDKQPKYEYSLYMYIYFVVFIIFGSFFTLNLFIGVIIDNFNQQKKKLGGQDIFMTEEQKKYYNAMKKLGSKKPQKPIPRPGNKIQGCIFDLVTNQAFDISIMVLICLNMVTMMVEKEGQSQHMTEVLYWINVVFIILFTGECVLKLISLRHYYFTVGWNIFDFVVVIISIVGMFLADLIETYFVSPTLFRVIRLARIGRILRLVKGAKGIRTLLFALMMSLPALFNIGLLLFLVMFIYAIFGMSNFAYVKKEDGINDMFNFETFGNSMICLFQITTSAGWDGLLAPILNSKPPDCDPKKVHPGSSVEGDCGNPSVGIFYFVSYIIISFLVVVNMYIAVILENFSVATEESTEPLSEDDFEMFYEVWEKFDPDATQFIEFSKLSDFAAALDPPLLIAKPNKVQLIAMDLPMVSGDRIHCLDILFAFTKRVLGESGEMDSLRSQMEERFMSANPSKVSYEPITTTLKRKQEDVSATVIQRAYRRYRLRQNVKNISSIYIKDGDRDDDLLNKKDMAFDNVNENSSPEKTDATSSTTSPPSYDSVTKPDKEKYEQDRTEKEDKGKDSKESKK
Target sequence in this assay (Q07699 whole entry partner, looked up): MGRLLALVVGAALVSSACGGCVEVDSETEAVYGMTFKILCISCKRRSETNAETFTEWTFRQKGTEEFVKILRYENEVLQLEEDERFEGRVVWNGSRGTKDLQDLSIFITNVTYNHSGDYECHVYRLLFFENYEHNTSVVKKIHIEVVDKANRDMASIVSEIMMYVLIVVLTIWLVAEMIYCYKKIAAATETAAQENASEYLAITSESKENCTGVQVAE

[2] = molecular target: T1, hNav1.7; assay: Patch voltage clamp electrophysiology assay (EP), Syncropatch 384PE, CHO cells expressing Nav1.7; assay type: cell-based; conditions: holding potential −50 mV, 7.5 min compound incubation; read-out: EP_SP hNav1.7 EVO IC50
Source text: Example 64c. Electrophysiological Assay (EP) (In Vitro Assay)
Patch voltage clamp electrophysiology allows for the direct measurement and quantification of block of voltage-gated sodium channels (NaV's), and allows the determination of the time- and voltage-dependence of block which has been interpreted as differential binding to the resting, open, and inactivated states of the sodium channel (Hille, B., Journal of General Physiology (1977), 69: 497-515).
The following voltage clamp electrophysiology studies are performed on representative compounds using cells heterologously expressing Nav1.7 or Nav1.5 channels. cDNAs for Nav1.7 (NM 002977) and Nav1.5 (AC137587) are stably expressed in Chinese Hamstr Ovary (CHO) cells and CHL (Chinese Hamster Lung) cells respectively. Sodium currents are measured in the whole-cell configuration using Syncropatch 384PE ([…], Germany). 1NPC®-384 chips with custom medium resistance and single hole mode are used. Internal solution consists of (in mM): […], 10CsCl, 20EGTA, and 10Hepes (pH adjusted to 7.2); and external solution contains (in mM): 60NMDG, 80NaCl, 4 KCl, 1MgCl2, 2CaCl2, 2D-Glucose monohydrate, 10Hepes (pH adjusted to 7.4 with NaOH).
After system flushing, testing compounds are dissolved in external solution containing 0.1% Pluronic F-127. The chip is moved into the measuring head and the instrument primes the chip with external and internal solutions. 10 μl cells are added to the chip from a cell hotel, and a negative pressure of −50 mBar is applied to form a seal. Following treatment with seal enhancer solution and wash-off with external solution, negative pressure of −250 mbar is applied for 1 second to achieve the whole-cell configuration, followed by three washing steps in external solution. 20 μl of compounds is added to 40 μl in each well (1:3 dilution of compounds), and after mixing, 20 μl is removed so the volume is retained at 40 ul. After approximately 13 minutes recordings, 20 μl/well of 2 uM TTX, or 333 uM Tetracaine (for Nav1.5) is added to achieve full block.
For voltage protocol, an holding potential of −50 mV is applied during the whole experiment. A depolarizing step is applied to −10 mV for 10 ms, followed by a hyperpolarization step to −150 mV for 20 ms to allow channel recovery from inactivation. A second depolarizing step is applied from −150 mV to −10 mV for 10 ms, where currents are measured to derive blocking effects of compounds. Inhibition is determined based on 7.5 min of compound incubation.
Target sequence in this assay (Q15858 other isoform, or with tags, fused parts or gaps): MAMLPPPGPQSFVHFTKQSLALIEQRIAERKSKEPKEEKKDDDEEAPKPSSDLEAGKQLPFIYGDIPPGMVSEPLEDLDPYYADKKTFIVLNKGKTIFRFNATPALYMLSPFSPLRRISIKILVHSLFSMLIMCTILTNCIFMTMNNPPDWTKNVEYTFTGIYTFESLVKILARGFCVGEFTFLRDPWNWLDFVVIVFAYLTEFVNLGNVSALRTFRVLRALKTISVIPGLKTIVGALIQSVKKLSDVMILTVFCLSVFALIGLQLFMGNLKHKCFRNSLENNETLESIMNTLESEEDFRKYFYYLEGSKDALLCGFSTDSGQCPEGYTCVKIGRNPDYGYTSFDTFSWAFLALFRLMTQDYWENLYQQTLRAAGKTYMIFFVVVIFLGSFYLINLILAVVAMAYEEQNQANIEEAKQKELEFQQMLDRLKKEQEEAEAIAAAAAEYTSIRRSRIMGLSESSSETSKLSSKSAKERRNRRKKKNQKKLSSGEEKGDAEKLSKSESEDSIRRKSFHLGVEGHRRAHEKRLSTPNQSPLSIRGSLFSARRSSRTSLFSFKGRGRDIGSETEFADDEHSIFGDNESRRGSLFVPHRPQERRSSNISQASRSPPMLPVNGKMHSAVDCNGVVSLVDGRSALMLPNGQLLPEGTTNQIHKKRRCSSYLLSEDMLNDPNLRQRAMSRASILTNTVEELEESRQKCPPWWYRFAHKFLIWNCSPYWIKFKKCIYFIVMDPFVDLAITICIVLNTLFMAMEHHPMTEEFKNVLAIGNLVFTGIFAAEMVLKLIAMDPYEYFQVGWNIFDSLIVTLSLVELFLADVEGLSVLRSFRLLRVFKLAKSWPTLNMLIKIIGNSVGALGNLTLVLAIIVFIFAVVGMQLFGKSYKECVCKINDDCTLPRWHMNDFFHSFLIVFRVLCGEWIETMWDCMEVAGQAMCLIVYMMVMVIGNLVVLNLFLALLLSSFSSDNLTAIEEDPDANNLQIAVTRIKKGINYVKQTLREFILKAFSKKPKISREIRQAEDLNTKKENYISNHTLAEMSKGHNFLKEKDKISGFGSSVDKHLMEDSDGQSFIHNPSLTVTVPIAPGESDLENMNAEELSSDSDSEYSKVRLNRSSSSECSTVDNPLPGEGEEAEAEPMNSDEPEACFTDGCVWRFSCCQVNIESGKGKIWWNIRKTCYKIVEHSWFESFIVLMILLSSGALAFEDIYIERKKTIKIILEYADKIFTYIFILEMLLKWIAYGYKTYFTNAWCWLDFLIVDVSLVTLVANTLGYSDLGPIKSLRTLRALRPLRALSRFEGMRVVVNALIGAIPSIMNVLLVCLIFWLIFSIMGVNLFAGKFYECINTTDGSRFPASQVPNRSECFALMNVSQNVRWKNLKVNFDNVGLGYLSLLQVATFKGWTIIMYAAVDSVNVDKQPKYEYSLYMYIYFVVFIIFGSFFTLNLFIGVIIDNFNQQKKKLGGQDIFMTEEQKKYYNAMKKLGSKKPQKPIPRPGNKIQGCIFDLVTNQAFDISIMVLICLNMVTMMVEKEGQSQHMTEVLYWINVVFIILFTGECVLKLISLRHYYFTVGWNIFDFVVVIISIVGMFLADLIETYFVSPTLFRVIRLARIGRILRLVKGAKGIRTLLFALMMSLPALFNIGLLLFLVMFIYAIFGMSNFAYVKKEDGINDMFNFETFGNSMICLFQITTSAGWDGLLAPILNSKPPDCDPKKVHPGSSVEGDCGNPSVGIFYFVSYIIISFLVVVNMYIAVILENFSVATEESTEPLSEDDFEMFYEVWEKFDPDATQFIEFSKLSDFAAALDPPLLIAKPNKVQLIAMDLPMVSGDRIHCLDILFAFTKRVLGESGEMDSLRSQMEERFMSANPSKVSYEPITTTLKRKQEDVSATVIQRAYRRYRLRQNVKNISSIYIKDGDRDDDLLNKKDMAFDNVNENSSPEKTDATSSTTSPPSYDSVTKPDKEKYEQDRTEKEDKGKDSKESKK

Compound | pIC50 [1] | pIC50 [2]
CN(C)[C@H]1C[C@@H](c2cccc(Cl)c2)CC[C@@H]1Oc1ncc(S(=O)(=O)Nc2ccncn2)cc1Cl [Example 27, 5-Chloro-6-(((1S,2S,4S)-4-(3-chlorophenyl)-2-(dimethylamino)cyclohexyl)oxy)-N-(pyrimidin-4-yl)pyridine-3-sulfonamide] | 8.15 | 9.24
O=S(=O)(Nc1ccncn1)c1ccc(N[C@H]2CC[C@H](c3cccc(OC(F)(F)F)c3)C[C@@H]2N2CCCC2)nc1 [Example 9, N-(pyrimidin-4-yl)-6-(((1S,2S,4S)-2-(pyrrolidin-1-yl)-4-(3-(trifluoromethoxy)phenyl)cyclohexyl)-amino)pyridine-3-sulfonamide formate] | 8.39 | 9.18
CN(C)[C@H]1C[C@@H](c2cccc(OC(F)(F)F)c2)CC[C@@H]1Nc1ccc(S(=O)(=O)Nc2ccncn2)cn1 [Example 8, 6-(((1S,2S,4S)-2-(dimethylamino)-4-(3-(trifluoromethoxy)phenyl)cyclohexyl)amino)-N-(pyrimidin-4-yl)pyridine-3-sulfonamide formate] | 8.15 | 9.24
6-(((1S,2S,4S)-2-(dimethylamino)-4-(6-(trifluoromethyl)pyridin-2-yl)cyclohexyl)oxy)-2-methyl-N-(pyrimidin-4-yl)pyridine-3-sulfonamide [Example 51] | 9.01 | 8.34
Cc1nc(O[C@H]2CC[C@H](c3cccc(CC(F)(F)F)c3)C[C@@H]2N(C)C)ccc1S(=O)(=O)Nc1ccncn1 [Example 59, 6-(((1S,2S,4S)-2-(dimethylamino)-4-(3-(2,2,2-trifluoroethyl)phenyl)cyclohexyl)oxy)-2-methyl-N-(pyrimidin-4-yl)pyridine-3-sulfonamide] | 8.80 | –
Cc1nc(O[C@H]2CC[C@H](c3cc(Cl)cc(Cl)c3)C[C@@H]2N(C)C)ccc1S(=O)(=O)Nc1ccncn1 [Example 50, 6-(((1S,2S,4S)-4-(3,5-dichlorophenyl)-2-(dimethylamino)cyclohexyl)oxy)-2-methyl-N-(pyrimidin-4-yl)pyridine-3-sulfonamide] | 8.95 | 9.65
Cc1nc(O[C@H]2CC[C@H](c3cccc(C(F)(F)F)c3)C[C@@H]2N(C)C)ccc1S(=O)(=O)Nc1ccncn1 [Example 23, 6-(((1S,2S,4S)-2-(Dimethylamino)-4-(3-(trifluoromethyl)phenyl)cyclohexyl)oxy)-2-methyl-N-(pyrimidin-4-yl)pyridine-3-sulfonamide formate] | 8.08 | –
Cc1nc(O[C@H]2CC[C@H](c3cc(C(F)(F)F)ccc3Cl)C[C@@H]2N(C)C)ccc1S(=O)(=O)Nc1ccncn1 [Example 38, 6-(((1S,2S,4S)-4-(2-chloro-5-(trifluoromethyl)phenyl)-2-(dimethylamino)cyclohexyl)oxy)-2-methyl-N-(pyrimidin-4-yl)pyridine-3-sulfonamide] | 8.75 | –
CN(C)[C@H]1C[C@@H](c2cccc(C(F)(F)F)c2)CC[C@@H]1Oc1ncc(S(=O)(=O)Nc2ccncn2)cc1Cl [Example 3, 5-Chloro-6-(((1S,2S,4S)-2-(dimethylamino)-4-(3-(trifluoromethyl)phenyl)cyclohexyl)oxy)-N-(pyrimidin-4-yl)pyridine-3-sulfonamide] | 7.40 | –
CN(C)[C@H]1C[C@@H](c2cccc(C(F)(F)F)c2)CC[C@@H]1Oc1ncc(S(=O)(=O)Nc2ccncn2)cc1C#N [Example 6, 5-Cyano-6-(((1S,2S,4S)-2-(dimethylamino)-4-(3-(trifluoromethyl)phenyl)cyclohexyl)oxy)-N-(pyrimidin-4-yl)pyridine-3-sulfonamide formate] | 7.35 | –
Cc1nc(O[C@H]2CC[C@H](c3ccc(Cl)c(Cl)c3)C[C@@H]2N(C)C)ccc1S(=O)(=O)Nc1ccncn1 [Example 37, 6-(((1S,2S,4S)-4-(3,4-dichlorophenyl)-2-(dimethylamino)cyclohexyl)oxy)-2-methyl-N-(pyrimidin-4-yl)pyridine-3-sulfonamide] | 8.86 | 9.52
CN(C)[C@H]1C[C@@H](c2cccc(C(F)(F)F)c2)CC[C@@H]1Oc1ncc(S(=O)(=O)Nc2ccncn2)cc1C1CC1 [Example 7, 5-Cyclopropyl-6-(((1S,2S,4S)-2-(dimethylamino)-4-(3-(trifluoromethyl)phenyl)cyclohexyl)oxy)-N-(pyrimidin-4-yl)pyridine-3-sulfonamide formate] | 8.31 | –
Cc1nc(O[C@H]2CC[C@H](c3cccc(C(F)(F)F)c3)C[C@@H]2N2CCOCC2)ccc1S(=O)(=O)Nc1ccncn1 [Example 55, 2-Methyl-6-(((1S,2S,4S)-2-morpholino-4-(3-(trifluoromethyl)phenyl)cyclohexyl)oxy)-N-(pyrimidin-4-yl)pyridine-3-sulfonamide] | 8.76 | –
CN(C)[C@H]1C[C@@H](c2cccc(C(F)(F)F)c2)CC[C@@H]1Oc1cc(Cl)c(S(=O)(=O)Nc2ccncn2)cn1 [Example 31, 4-Chloro-6-(((1S,2S,4S)-2-(dimethylamino)-4-(3-(trifluoromethyl)phenyl)cyclohexyl)oxy)-N-(pyrimidin-4-yl)pyridine-3-sulfonamide] | 8.72 | –
O=S(=O)(Nc1ccncn1)c1ccc(O[C@H]2CC[C@H](c3cccc(C(F)(F)F)c3)C[C@@H]2N2CCCCC2)nc1 [Example 26, 6-(((1S,2S,4S)-2-(piperidin-1-yl)-4-(3-(trifluoromethyl)phenyl)cyclohexyl)oxy)-N-(pyrimidin-4-yl)pyridine-3-sulfonamide] | 8.31 | –
Cc1nc(O[C@H]2CC[C@H](c3cccc(OC(F)(F)F)c3)C[C@@H]2N(C)C)ccc1S(=O)(=O)Nc1ccncn1 [Example 28, 6-(((1S,2S,4S)-2-(Dimethylamino)-4-(3-(trifluoromethoxy)phenyl)cyclohexyl)oxy)-2-methyl-N-(pyrimidin-4-yl)pyridine-3-sulfonamide] | 8.39 | –
